Holding throughout (format): functional, cell-based
Experiment [1] can be described thus: Antiproliferative activity against human HeLa cells measured after 24 hrs by CCK8 assay. (Tetrazolium assays rely on reduction of a dye to a coloured formazan, in cell work by metabolically active cells.)
A short description of experiment [2]: Antiproliferative activity against human HCT116 cells measured after 24 hrs by CCK8 assay. The note with it: HCT-116, 24 h.
Experiment [3] in a line: Antiproliferative activity against human A549 cells measured after 24 hrs by CCK8 assay. The note with it: A549, 24 h.
A short description of experiment [4]: Antiproliferative activity against human MCF7 cells measured after 24 hrs by CCK8 assay. Conditions: MCF7, 24 h.

This is an account of results in ChEMBL document CHEMBL3861963, “Hypocriols A-F, Heterodimeric Botryane Ethers from Hypocrea sp., an Insect-Associated Fungus” (J Nat Prod, 2016).

SMILES strings stand for the structures.

For `CC(=O)O[C@H]1C[C@@H](C)[C@@H]2[C@@H](OCc3c(C)ccc4c3[C@@](C)(CO)CC4(C)C)OC[C@@]3(C)CC(C)(C)[C@H]1[C@]23O`, the IC50 in experiment [1] is 4.6 µM; in experiment [2], 2.7 µM; in experiment [3], 15.3 µM; in experiment [4] it was 23.6 µM.

For the compound `CC(=O)O[C@H]1C[C@@H](C)[C@@H]2[C@@H](OC[C@@]3(C)CC(C)(C)c4ccc(C)c(CO)c43)OC[C@@]3(C)CC(C)(C)[C@H]1[C@]23O`, the IC50 came to 43.6 µM in experiment [1], 23 µM in experiment [2] and 48.3 µM in experiment [4].

For the compound `CO[C@H]1O[C@@H](O[C@H]2[C@H](O)[C@H]3[C@H](C)C[C@H](OC(C)=O)[C@H]4C(C)(C)C[C@@]2(C)[C@@]34O)[C@@]2(C)CC(C)(C)c3ccc(C)c1c32`, the 50% inhibitory concentration (IC50) in experiment [1] turned out to be 3.8 µM; in experiment [2], 18.8 µM; in experiment [3], 46.7 µM; in experiment [4], 34.2 µM.

As for `CC(=O)O[C@H]1C[C@@H](C)[C@@H]2[C@@H](O)[C@H](O[C@@H]3OC[C@@]4(C)CC(C)(C)c5ccc(C)c3c54)[C@@]3(C)CC(C)(C)[C@H]1[C@]23O`, the IC50 was 11.8 µM in experiment [1], 17.5 µM in experiment [2] and 48.3 µM in experiment [4].

Regarding `CC(=O)O[C@H]1C[C@@H](C)[C@@H]2[C@@H](O)[C@H](O[C@H]3OC[C@@]4(C)CC(C)(C)c5ccc(C)c3c54)[C@@]3(C)CC(C)(C)[C@H]1[C@]23O`, the IC50 in experiment [1] turned out to be 7.7 µM; in experiment [2], 18.6 µM; in experiment [3], 25.3 µM; in experiment [4], 19.7 µM.

`CC(=O)O[C@H]1C[C@@H](C)[C@@H]2[C@@H](OC3OC[C@@]4(C)CC(C)(C)c5ccc(C)c3c54)[C@H](O)[C@@]3(C)CC(C)(C)[C@H]1[C@]23O` (some centres undefined) returned an IC50 in experiment [1] of 3.1 µM.

Broadly, the IC50 is the midpoint of a concentration-inhibition curve.
